We go through one molecule from patent US20110105554A1, “MEANS FOR TREATING MYOSIN-RELATED DISEASES” (KINARIS BIOMEDICALS GMBH, priority 2007, published 2011).

Usually Ki stands for the equilibrium dissociation constant of an inhibitor or competing ligand from its target.

The test system of assay [1] is heavy meromyosin (HMM) prepared from rabbit skeletal muscle myosin-2. Briefly: Inhibitor screening: colorimetric high-throughput myosin ATPase assay with HMM. It counts as biochemical. The source says: Preferably, said activity is the capability of said myosin (i) to bind actin; (ii) to convert ATP into ADP and Pi; and/or (iii) to generate force and/or movement. Exemplary or preferred binding assays are described herein above and can be applied for determining whether myosin binds actin, preferably F-actin, and/or nucleotides. Exemplary or preferred activity assays are described herein below and can be applied for determining whether myosin is capable of converting ATP into ADP and Pi or of force production and generation of movement. An exemplary assay for ATPase activity is based on the detection of free phosphate formed upon cleavage of ATP, wherein the detection is effected using malachite green. For an exemplary workflow, see FIG. 17.
FIG. 6: Histogram showing the relative myosin-2 ATPase activity measured in the absence (+control) and presence of halogenated alkaloids. Blebbistatin und BTS were used as controls. Compounds of the HET-series, BTS and blebbistatin were used at 25 μM final concentration. HET-43 is PBP (pentabromopseudilin). […]
Inhibitor screening. […] The amount of dye formed after 20 min color development at room temperature was determined with a Tecan Infinite™ microplate reader (Cralisheim, Germany).

In a further assay the test system is myosin-2. It is filed as biochemical. The conditions noted are these: 100 μM PBP.
Assay [2] deals with Saccharomyces cerevisiae cells. The assay can be described thus: Myo2p-dependent changes in mitochondrial morphology in yeast. It counts as cell-based. As to the method: FIG. 13: Myo2p-dependent changes in mitochondrial morphology. In yeast cells, the class-5 myosins Myo2p is responsible for the distribution of mitochondria between mother and daughter cells during cytokinesis and has be shown to affect mitochondrial morphology during […]. […] Insets show the same cells viewed under transmitted light. Bar: 5 μm
To test the specific inhibition of myosin-5 function in a cellular context, we exposed Saccharomyces cerevisiae cells to 100 to 500 nM PBP. S. cerevisiae has five myosin heavy chain genes: a myosin-2, two class-1 myosins, and the class-5 myosins Myo2p and Myo4p. Myo2p plays a crucial role in polarized distribution of mitochondria and is required for retention of newly inherited mitochondria in yeast cells during cell division^4-6. Myo4p is required for mRNA transport and facilitates movement of ER tubules into the growing bud. Myo4p null mutants are viable and display no detectable phenotype. Deletion of the myo3 and myo5 genes, encoding class-1 myosins, leads to severe defects in growth and actin cytoskeletal organization. Severe growth defects are also observed upon depletion of the class-2 myosin Myo1p. Therefore, we expected that selective inhibition of class-5 myosins will produce readily detectable changes in the morphology of mitochondria without affecting cell growth and cytokinesis. To facilitate the visual inspection of mitochondrial morphology, we transfected the cells used for these experiments with an expression vector for the production of mitochondria-targeted GFP^7. A yeast mutant strain with myo2 expression under the control of the TetO7 promoter was used as control^8. Repression of the TetO7 promoter by the addition of 10 μg/ml deoxycycline to the culture medium of this strain led to an apparent fragmentation of mitochondria.
Myo2p-dependent changes in mitochondrial morphology. […] Yeast strains producing mitochondria-targeted GFP were supplied by Dr. B. Westermann^7, allowing us to study the morphology of yeast mitochondria in a fluorescence microscope. […] Cells were analyzed at the end of the logarithmic growth phase. […]

The target in assay [3] is rabbit skeletal myosin-2 heavy meromyosin (HMM). The assay can be described thus: Actin-activated ATPase activity, rabbit skeletal myosin-2 HMM. It counts as biochemical. The conditions noted are these: 0 to 150 μM PBP, hyperbolic fit; read-out: Ki, half-maximal inhibition of actin-activated ATPase activity. How it is done: Based on the structure of the myosin-2 motor domain with bound PBP, we performed molecular modeling studies to elucidate the specificity of PBP-binding to myosins from different classes. […] To test the predictions from the modeling studies, we determined actin-activated ATPase activities in the presence of 0 to 150 μM PBP with rabbit skeletal myosin-2 heavy meromyosin (HMM), myosin-5a isolated from chicken brain, and recombinant Dictyostelium myosin class-1, 2 and 5 motor-domain constructs (FIG. 9a). […] The concentrations of PBP required for half-maximal inhibition of the different myosin motors was calculated from fitting the data to hyperbolae. […] To determine the extend to which PBP impairs the coupling between the actin- and nucleotide-binding sites of myosin, we measured the ATP turn-over rates of Dictyostelium myosin-2 and myosin-5b motor domain constructs over the range from 0 to 50 μM F-actin in the absence and presence of 25 μM PBP.
Protein preparation. Rabbit fast skeletal muscle heavy meromyosin (HMM) was prepared as described by Kron and Spudich^9. […]
Steady-state kinetics. Basal and actin-activated Mg^2+-ATPase activities were measured with the NADH-coupled assay^19 in a buffer containing 25 mM HEPES, 25 mM KCl, and 4 mM MgCl2, 0.5 mM DTT at pH 7.0 in the presence of 1 mM ATP at 25° C. […]

With `Oc1c(Br)cc(Br)cc1-c1[nH]c(Br)c(Br)c1Br` [KIN-43], in assay [1], the “inhibition of HMM ATPase activity” value is “very potent inhibitor”. In addition, the “fold reduction in the average gliding velocity” value in the assay with myosin-2 was 2-to-3 fold. Moreover, the mitochondrial morphology entry is reported as “closely resembled that of untreated wild-type cells” in assay [2] (100 nM PBP) and “phenotype of Myo2p-depleted cells can be phenocopied” in assay [2] (500 nM PBP, 12 hours, wild-type cells, listed as PBP). In assay [2] (500 nM, listed as PDP), the “growth kinetics of yeast cells” value is given as “almost the same growth kinetics as wild type control cultures”. The inhibitory constant (Ki) in assay [3] was 23 µM.
